{"source": "paper PMC10154249", "about": "“Unique progerin C-terminal peptide ameliorates Hutchinson–Gilford progeria syndrome phenotype by rescuing BUBR1” (Nature Aging, 2023)", "format_in_all_cases": "cell-based, human", "key": {"senescent IMR90 cells [1]": {"tested_on": "senescent IMR90 cells", "assay": "Ki67 immunofluorescence of DNA damage-induced senescent IMR90 cells", "details": "UPCP", "procedure": "(§1) Fibroblasts from patients with HGPS were obtained from The Progeria Research Foundation Cell and Tissue Bank (http://www.progeriaresearch.org). The following fibroblasts were used: HGADFN003, HGADFN167, HGMDFN090 and HGFDFN168. Human dermal fibroblasts (GM00038 and AG09602) were obtained from Coriell Cell Repository (https://catalog.coriell.org). These cells were characterized by DNA fingerprinting and isozyme detection and were tested by a MycoBlue Mycoplasma Detector (Vazyme Biotech) to exclude mycoplasma contamination before the experiments. […] HGADFN003, HGADFN167, HGMDFN090, HGFDFN168, GM00038 and AG09602 were cultured in DMEM medium with 15% (v/v) fetal bovine serum (VivaCell). All cell lines were grown at 37 °C with 5% CO2 and IMR90, CRL-1474, HGADFN003, HGADFN167, HGMDFN090, HGFDFN168, GM00038 and AG09602 were cultured with 5% O2. For bleomycin-induced senescence, IMR90 cells were incubated with the culture medium containing 20 μg ml^–1 Bleomycin (Selleck, catalog no. S1214) for 2 h and analyzed 10 days later, or as otherwise indicated. For doxorubicin-induced senescence, IMR90 cells were treated twice with 100 nM Doxorubicin (Selleck, catalog no. S1208) with a 2 day interval and analyzed 10 days later, or as otherwise indicated. For ionizing radiation (IR)-induced senescence, IMR90 cells were exposed to 10 Gy Gamma rays, and analyzed 10 days later, or as otherwise indicated, the control IMR90 cells were mock irradiated. For etoposide-induced senescence, IMR90 cells incubated with the culture medium containing 10 μM Etoposide (Sigma, catalog no. E1383) for 48 h and analyzed 10 days later, or as otherwise indicated.\n(§2) Immunofluorescence was performed as described previously. Cells were plated on cover slips in 12-well plates, left overnight before the treatment. Cells were fixed in 1% formaldehyde in culture medium for 10 min at 37 °C and permeabilized with 0.2% Triton X-100 in PBS for 10 min at room temperature. Cells were washed twice in PBS and blocked for 1 h with 5% BSA in PBS and then incubated with primary antibodies at 4 °C overnight, washed three times in PBS and incubated with secondary antibodies for 1 h at room temperature. Cell nuclei were counterstained with a 500 nM concentration of 4,6-diamidino-2-phenylindole (DAPI) (Sigma). Images were acquired by a fluorescence microscope (OLYMPUS FV-1000, Carl Zeiss LSM880 or Leica DMi8) and analyzed with software NIS-Elements AR v.5.0.1 (Nikon), FLUOVIEW v.4.2b (OLYMPUS), ZEN v.2.3 SP1 (Carl Zeiss) and Leica Application Suite X v.3.6.0.24 (Leica). Cells were quantified by investigators who were blinded to the identity of the analyzed cell."}, "senescent IMR90 cells [2]": {"tested_on": "senescent IMR90 cells", "assay": "SA-β-gal staining of DNA damage-induced senescent IMR90 cells", "details": "for SA-β-gal positive cells: UPCP 6 μM 5 days", "procedure": "as §1\nSA-β-gal staining was performed as previously described. Cells were fixed in 0.5% glutaraldehyde for 15 min at room temperature, washed three times with PBS (pH 6.0) containing 1 mM MgCl2 and exposed overnight 37 °C to containing 1 mg ml^–1 5-bromo-4-chloro-3-indolyl-β-D-galactopyranoside (MCE, catalog no. HY-15934), 0.12 mM potassium ferrocyanide (Sigma, catalog no. P3289), 0.12 mM potassium ferricyanide (Sigma, catalog no. P8131) and 1 mM MgCl2 PBS buffer (pH 6.0). Cells were washed three times with H2O and observed under a microscope (OLYMPUS CKX53). SA-β-gal positive cells were quantified by investigators who were blinded to the identity of the analyzed cell."}, "HGADFN003 cells": {"tested_on": "HGADFN003 cells", "assay": "CyclinA2 immunofluorescence of HGADFN003 cells", "procedure": "as §2"}, "[3]": {"tested_on": "BUBR1 in IMR90-progerin cells", "assay": "Western blot of BUBR1 in progerin-expressing IMR90 cells", "procedure": "Western blot was performed as previously described. Cells were lysed in 1× Laemmli sample buffer after washing twice in cold PBS without calcium and magnesium. Protein concentrations were determined using the bicinchoninic acid (BCA) protein assay. Protein lysates were subjected to SDS–PAGE, transferred to 0.45-μm pore size hydrophobic PVDF transfer membrane (Merck Millipore), detected with the appropriate primary antibodies coupled with horseradish peroxidase-conjugated corresponding secondary antibodies, and visualized using enhanced chemiluminescence ECL reagent (GE Healthcare). The Tanon 5500 high-definition low-illumination CCD system (Tanon FLI Capture v.1.02) was used to capture chemiluminescent signals."}, "[4]": {"details": "BLM (bleomycin 20 μg/mL 2 h), replicate 1"}, "[5]": {"details": "BLM (bleomycin 20 μg/mL 2 h), replicate 2"}, "[6]": {"details": "BLM (bleomycin 20 μg/mL 2 h), replicate 3"}, "[7]": {"details": "Dox (doxorubicin 100 nM twice), replicate 1"}, "[8]": {"details": "Dox (doxorubicin 100 nM twice), replicate 2"}, "[9]": {"details": "Dox (doxorubicin 100 nM twice), replicate 3"}, "[10]": {"details": "Eto (etoposide 10 μM 48 h), replicate 1"}, "[11]": {"details": "Eto (etoposide 10 μM 48 h), replicate 2"}, "[12]": {"details": "Eto (etoposide 10 μM 48 h), replicate 3"}}, "data": [{"substance": "H-YGRKKRRQRRRYNLRSRTVLCGTCGQPADKASASGSGAQSPQNCSIM-OH (cysteines drawn unpaired) [UPCP, unique progerin C-terminal peptide]", "values": [{"measurement": "Ki67 positive cells", "setting": "senescent IMR90 cells [1]; [4]", "value": 14.5, "unit": "%"}, {"measurement": "Ki67 positive cells", "setting": "senescent IMR90 cells [1]; [5]", "value": 18.5, "unit": "%"}, {"measurement": "Ki67 positive cells", "setting": "senescent IMR90 cells [1]; [6]", "value": 21.5, "unit": "%"}, {"measurement": "Ki67 positive cells", "setting": "senescent IMR90 cells [1]; [7]", "value": 14, "unit": "%"}, {"measurement": "Ki67 positive cells", "setting": "senescent IMR90 cells [1]; [8]", "value": 22, "unit": "%"}, {"measurement": "Ki67 positive cells", "setting": "senescent IMR90 cells [1]; [9]", "value": 19, "unit": "%"}, {"measurement": "Ki67 positive cells", "setting": "senescent IMR90 cells [1]; [10]", "value": 18.5, "unit": "%"}, {"measurement": "Ki67 positive cells", "setting": "senescent IMR90 cells [1]; [11]", "value": 20, "unit": "%"}, {"measurement": "Ki67 positive cells", "setting": "senescent IMR90 cells [1]; [12]", "value": 14.5, "unit": "%"}, {"measurement": "Ki67 positive cells", "setting": "senescent IMR90 cells [1]; IR (10 Gy), replicate 1", "value": 19, "unit": "%"}, {"measurement": "Ki67 positive cells", "setting": "senescent IMR90 cells [1]; IR (10 Gy), replicate 2", "value": 15.5, "unit": "%"}, {"measurement": "Ki67 positive cells", "setting": "senescent IMR90 cells [1]; IR (10 Gy), replicate 3", "value": 17, "unit": "%"}, {"measurement": "SA-β-gal positive cells", "setting": "senescent IMR90 cells [2]; [4]", "value": 71.6418, "unit": "%"}, {"measurement": "SA-β-gal positive cells", "setting": "senescent IMR90 cells [2]; [5]", "value": 81.25, "unit": "%"}, {"measurement": "SA-β-gal positive cells", "setting": "senescent IMR90 cells [2]; [6]", "value": 74.0741, "unit": "%"}, {"measurement": "SA-β-gal positive cells", "setting": "senescent IMR90 cells [2]; [7]", "value": 76.4706, "unit": "%"}, {"measurement": "SA-β-gal positive cells", "setting": "senescent IMR90 cells [2]; [8]", "value": 84.6154, "unit": "%"}, {"measurement": "SA-β-gal positive cells", "setting": "senescent IMR90 cells [2]; [9]", "value": 66.1539, "unit": "%"}, {"measurement": "SA-β-gal positive cells", "setting": "senescent IMR90 cells [2]; [10]", "value": 80.4348, "unit": "%"}, {"measurement": "SA-β-gal positive cells", "setting": "senescent IMR90 cells [2]; [11]", "value": 71.7949, "unit": "%"}, {"measurement": "SA-β-gal positive cells", "setting": "senescent IMR90 cells [2]; [12]", "value": 70.9091, "unit": "%"}, {"measurement": "rescue of phenotype of DNA damage-induced senescent cells", "setting": "senescent IMR90 cells [2]; IMR90, 10 days after bleomycin, doxorubicin, ionizing radiation or etoposide", "value": "failed to rescue the progeria phenotype of these cells"}, {"measurement": "SA-β-gal positive cells", "setting": "senescent IMR90 cells [2]; IR (10 Gy), replicate 1", "value": 77.4193, "unit": "%"}, {"measurement": "SA-β-gal positive cells", "setting": "senescent IMR90 cells [2]; IR (10 Gy), replicate 2", "value": 75.5814, "unit": "%"}, {"measurement": "SA-β-gal positive cells", "setting": "senescent IMR90 cells [2]; IR (10 Gy), replicate 3", "value": 70.4545, "unit": "%"}, {"measurement": "CyclinA2 positive cells", "setting": "HGADFN003 cells; HGADFN003, 2h, replicate 1", "value": 25, "unit": "%"}, {"measurement": "CyclinA2 positive cells", "setting": "HGADFN003 cells; HGADFN003, 2h, replicate 2", "value": 35.7143, "unit": "%"}, {"measurement": "CyclinA2 positive cells", "setting": "HGADFN003 cells; HGADFN003, 2h, replicate 3", "value": 33.3333, "unit": "%"}, {"measurement": "CyclinA2 positive cells", "setting": "HGADFN003 cells; HGADFN003, 4h, replicate 1", "value": 42.8571, "unit": "%"}, {"measurement": "CyclinA2 positive cells", "setting": "HGADFN003 cells; HGADFN003, 4h, replicate 2", "value": 43.4783, "unit": "%"}, {"measurement": "CyclinA2 positive cells", "setting": "HGADFN003 cells; HGADFN003, 4h, replicate 3", "value": 31.8182, "unit": "%"}, {"measurement": "CyclinA2 positive cells", "setting": "HGADFN003 cells; HGADFN003, 6h, replicate 1", "value": 35.2941, "unit": "%"}, {"measurement": "CyclinA2 positive cells", "setting": "HGADFN003 cells; HGADFN003, 6h, replicate 2", "value": 33.3333, "unit": "%"}, {"measurement": "CyclinA2 positive cells", "setting": "HGADFN003 cells; HGADFN003, 6h, replicate 3", "value": 45.8333, "unit": "%"}, {"measurement": "CyclinA2 positive cells", "setting": "HGADFN003 cells; HGADFN003, 24h, replicate 1", "value": 42.3077, "unit": "%"}, {"measurement": "CyclinA2 positive cells", "setting": "HGADFN003 cells; HGADFN003, 24h, replicate 2", "value": 41.1765, "unit": "%"}, {"measurement": "CyclinA2 positive cells", "setting": "HGADFN003 cells; HGADFN003, 24h, replicate 3", "value": 48.5714, "unit": "%"}, {"measurement": "CyclinA2 positive cells", "setting": "HGADFN003 cells; HGADFN003, 48h, replicate 1", "value": 59.0909, "unit": "%"}, {"measurement": "CyclinA2 positive cells", "setting": "HGADFN003 cells; HGADFN003, 48h, replicate 2", "value": 58.3333, "unit": "%"}, {"measurement": "CyclinA2 positive cells", "setting": "HGADFN003 cells; HGADFN003, 48h, replicate 3", "value": 56.7568, "unit": "%"}, {"measurement": "level of CyclinA2", "setting": "HGADFN003 cells; HGPS cells", "value": "increased level of CyclinA2"}, {"measurement": "BUBR1 abundance", "setting": "[3]", "value": "upregulated BUBR1"}]}]}
